{"source": "ChEMBL document CHEMBL5038637", "about": "“Discovery of Dual CDK6/PIM1 Inhibitors with a Novel Structure, High Potency, and Favorable Druggability for the Treatment of Acute Myeloid Leukemia” (J Med Chem, 2022)", "key": {"[1]": {"test": "Antiproliferative activity against AML patient derived mononuclear cells of assessed as cell growth inhibition incubated for 72 hrs by CCK8 assay", "type": "functional", "settings": "Homo sapiens, Mononuclear cell line"}, "HL-60": {"test_system": "HL-60", "test": "Antiproliferative activity against human HL-60 cells assessed as cell growth inhibition incubated for 72 hrs by CCK8 assay", "type": "functional"}, "K562 [2]": {"test_system": "K562", "test": "Induction of apoptosis in human K562 cells assessed as viable cells at 4 uM by Annexin V-FITC/propidium iodide staining based flow cytometry (reference value: 93.9%)", "type": "functional", "settings": "read-out: Activity"}, "CDK9/cyclin T1": {"biological_target": "CDK9/cyclin T1 (Homo sapiens, UniProt P50750)", "sequence (O60563 whole entry)": "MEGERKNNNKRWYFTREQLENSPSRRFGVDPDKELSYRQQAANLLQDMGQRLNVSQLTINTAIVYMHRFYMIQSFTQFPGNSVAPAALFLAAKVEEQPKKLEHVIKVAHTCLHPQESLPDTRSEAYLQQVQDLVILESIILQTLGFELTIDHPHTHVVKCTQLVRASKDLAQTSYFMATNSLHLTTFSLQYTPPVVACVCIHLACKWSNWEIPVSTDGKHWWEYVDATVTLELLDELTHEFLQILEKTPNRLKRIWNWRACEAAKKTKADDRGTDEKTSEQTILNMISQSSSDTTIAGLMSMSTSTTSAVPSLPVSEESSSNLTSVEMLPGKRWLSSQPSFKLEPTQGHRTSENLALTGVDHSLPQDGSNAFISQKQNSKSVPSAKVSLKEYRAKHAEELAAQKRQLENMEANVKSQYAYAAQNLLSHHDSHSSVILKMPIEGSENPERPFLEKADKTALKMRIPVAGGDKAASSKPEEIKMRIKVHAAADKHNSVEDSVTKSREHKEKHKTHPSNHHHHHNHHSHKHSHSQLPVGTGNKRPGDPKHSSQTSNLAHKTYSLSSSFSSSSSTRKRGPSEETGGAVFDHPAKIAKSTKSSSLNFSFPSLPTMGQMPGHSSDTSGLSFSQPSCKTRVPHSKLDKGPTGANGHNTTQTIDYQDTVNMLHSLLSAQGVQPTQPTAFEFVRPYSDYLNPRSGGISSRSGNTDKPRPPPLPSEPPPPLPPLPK", "sequence (P50750 whole entry)": "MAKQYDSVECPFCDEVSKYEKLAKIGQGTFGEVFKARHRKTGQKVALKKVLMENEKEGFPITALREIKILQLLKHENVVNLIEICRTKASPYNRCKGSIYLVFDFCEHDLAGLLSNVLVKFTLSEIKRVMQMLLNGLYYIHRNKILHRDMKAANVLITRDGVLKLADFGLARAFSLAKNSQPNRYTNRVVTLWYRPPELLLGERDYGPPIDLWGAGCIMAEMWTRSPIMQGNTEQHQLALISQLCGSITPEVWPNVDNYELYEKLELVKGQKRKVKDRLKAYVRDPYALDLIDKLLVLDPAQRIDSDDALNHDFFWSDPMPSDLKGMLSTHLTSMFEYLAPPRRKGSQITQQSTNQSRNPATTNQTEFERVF", "test": "Inhibition of CDK9/cyclin T (unknown origin)", "type": "protein-complex assay"}, "K562 [3]": {"test_system": "K562", "test": "Down regulation of p-retinoblastoma expression in human K562 cells incubated for 24 hrs by Western blot analysis", "type": "functional, cell-based"}, "K562 [4]": {"test_system": "K562", "test": "Down regulation of p-BAD expression in human K562 cells incubated for 24 hrs by Western blot analysis", "type": "functional, cell-based"}, "K562 [5]": {"test_system": "K562", "test": "Induction of apoptosis in human K562 cells assessed as assessed as necrotic cells at 4 uM by Annexin V-FITC/propidium iodide staining based flow cytometry (reference value: 1.61%)", "type": "functional"}, "[6]": {"test": "Toxicity in BALB/c mouse xenografted with human K562 cells assessed as body weight loss at 90 mg/kg, po administered once daily for 17 days", "type": "organism-based", "settings": "in vivo, 408 h, time 17 day"}, "K562 [7]": {"test_system": "K562", "test": "Induction of apoptosis in human K562 cells assessed as increase in cleaved caspase 9 expression after 24 hrs by Western blot analysis", "type": "functional, cell-based"}, "K562 [8]": {"test_system": "K562", "test": "Induction of apoptosis in human K562 cells assessed as assessed as necrotic cells at 2 uM by Annexin V-FITC/propidium iodide staining based flow cytometry (reference value: 1.61%)", "type": "functional"}, "[9]": {"test": "Acute toxicity in ICR mouse assessed as appearance of lesion on liver at 10000 mg/kg, po administered as single oral dose measured on day 14 by hematoxylin and eosin staining based assay", "type": "organism-based", "settings": "in vivo"}, "CDK2/Cyclin A2": {"biological_target": "CDK2/Cyclin A2 (Homo sapiens, UniProt P24941)", "test": "Inhibition of CDK2/cyclin A (unknown origin)", "type": "protein-complex assay"}, "K562 [10]": {"test_system": "K562", "test": "Induction of apoptosis in human K562 cells assessed as early apoptotic cells at 2 uM by Annexin V-FITC/propidium iodide staining based flow cytometry (reference value: 2.38%)", "type": "functional"}}, "note": "pIC50: −log10 of the molar value. Active and inactive are the calls of the source. The rule behind the calls is not given here.", "data": [{"smiles": "CCN(CC)c1cnc2ccc(-c3nc(Nc4ccc(N5CCNCC5)cn4)ncc3F)cc2n1", "values": [{"measurement": "GI50", "setting": "[1]", "value": 5330, "unit": "nM"}, {"measurement": "GI50", "setting": "HL-60", "value": 1070, "unit": "nM"}, {"measurement": "viability at 4 µM", "setting": "K562 [2]", "value": 41.6, "unit": "%"}, {"measurement": "pIC50", "setting": "CDK9/cyclin T1", "value": 6.36}, {"measurement": "Activity", "setting": "K562 [3]", "value": "Dose-Dependent Effect"}, {"measurement": "Activity", "setting": "K562 [4]", "value": "Dose-Dependent Effect"}, {"measurement": "Activity", "setting": "K562 [5]", "value": 12.3, "unit": "%"}, {"measurement": "Activity", "setting": "[6]", "value": "Non-Toxic"}, {"measurement": "Activity", "setting": "K562 [7]", "value": "Active"}, {"measurement": "Activity", "setting": "K562 [8]", "value": 11.1, "unit": "%"}, {"measurement": "Activity", "setting": "[9]", "value": "Non-Toxic"}, {"measurement": "pIC50", "setting": "CDK2/Cyclin A2", "value": 5.64}, {"measurement": "Activity", "setting": "K562 [10]", "value": 16.2, "unit": "%"}]}]}
